Results on 33 molecules are retold here after ChEMBL document CHEMBL3784940 (Bioorg Med Chem Lett, 2016).

A short description of series [1]: Inhibition of Hh signaling pathway in mouse TM3 cells assessed as downregulation of Gli1 gene expression after 48 hrs by luciferase reporter gene assay. In kind it is cell-based. The conditions noted are these: TM3, 48 h. (In general: A reporter such as luciferase makes a cellular process visible.)
A short description of series [2]: Cytotoxicity against mouse TM3 cells assessed as cell viability after 48 hrs by Cell Titer Glo assay. In kind it is cell-based. The conditions noted are these: read-out: LD50. For orientation: In ATP-based viability assays light output follows the ATP content of the culture.
A short description of series [3]: Inhibition of Hh signaling pathway in Sufu deficient MEF cells assessed as downregulation of Gli1 mRNA expression at 0.1 uM after 24 hrs by qRT-PCR analysis. In kind it is cell-based. The conditions noted are these: Mus musculus.
Series [4] can be described thus: Inhibition of Hh signaling pathway in Sufu deficient MEF cells assessed as downregulation of Ptch1 mRNA expression at 0.1 uM after 24 hrs by qRT-PCR analysis. It counts as cell-based. Particulars: Mus musculus. In general terms: Quantitative PCR measures a nucleic acid by following its amplification.
The nature of series [5]: Inhibition of Hh signaling pathway in Sufu deficient MEF cells assessed as downregulation of Gli1 mRNA expression at 10 uM after 24 hrs by qRT-PCR analysis. In kind it is cell-based. Particulars: Mus musculus.
Series [6] concerns the target Protein smoothened (Homo sapiens) (UniProt Q99835). Nature of the series: Displacement of BODIPY-cyc from SMO receptor (unknown origin) transfected in HEK293T cells at 10 uM after 16 hrs by laser-scanning confocal microscopic analysis. The conditions noted are these: HEK-293T. In kind it is cell-based.
The nature of series [7]: Inhibition of luciferase (unknown origin) expressed in BMP-responsive element stable reporter cells. It counts as cell-based.
Series [8] can be described thus: Inhibition of Hh signaling pathway in Sufu deficient MEF cells assessed as downregulation of Ptch1 mRNA expression at 10 uM after 24 hrs by qRT-PCR analysis. In kind it is cell-based. The conditions noted are these: Mus musculus.
Series [9] deals with 3',5'-cyclic-AMP phosphodiesterase 4D (Homo sapiens, UniProt Q08499). Nature of the series: Inhibition of PDE4D (unknown origin) preincubated for 5 mins followed by cAMP addition measured after 15 mins by PDE-Glo phosphodiesterase assay.
A short description of series [10]: Inhibition of Hh signaling pathway in Shh-LIGHT2 incorporated mouse NIH 3T3 cells assessed as downregulation of Gli1 gene expression by luciferase reporter gene assay. It counts as cell-based. The conditions noted are these: NIH3T3.
The target of series [11] is Protein smoothened (Homo sapiens) (UniProt Q99835). The series can be described thus: Displacement of BODIPY-cyc from SMO receptor (unknown origin) transfected in HEK293T cells at 200 nM after 16 hrs by laser-scanning confocal microscopic analysis. In kind it is cell-based. Particulars: HEK-293T.
Series [12] has the same target. The series can be described thus: Displacement of BODIPY-cyc from SMO receptor (unknown origin) transfected in HEK293T cells at 1 uM after 16 hrs by laser-scanning confocal microscopic analysis. It counts as cell-based. The conditions noted are these: HEK-293T.

Calls of active or inactive are those of the source. The rule behind the calls is not given here.

Sequence of Protein smoothened (Homo sapiens) (Q99835 whole entry): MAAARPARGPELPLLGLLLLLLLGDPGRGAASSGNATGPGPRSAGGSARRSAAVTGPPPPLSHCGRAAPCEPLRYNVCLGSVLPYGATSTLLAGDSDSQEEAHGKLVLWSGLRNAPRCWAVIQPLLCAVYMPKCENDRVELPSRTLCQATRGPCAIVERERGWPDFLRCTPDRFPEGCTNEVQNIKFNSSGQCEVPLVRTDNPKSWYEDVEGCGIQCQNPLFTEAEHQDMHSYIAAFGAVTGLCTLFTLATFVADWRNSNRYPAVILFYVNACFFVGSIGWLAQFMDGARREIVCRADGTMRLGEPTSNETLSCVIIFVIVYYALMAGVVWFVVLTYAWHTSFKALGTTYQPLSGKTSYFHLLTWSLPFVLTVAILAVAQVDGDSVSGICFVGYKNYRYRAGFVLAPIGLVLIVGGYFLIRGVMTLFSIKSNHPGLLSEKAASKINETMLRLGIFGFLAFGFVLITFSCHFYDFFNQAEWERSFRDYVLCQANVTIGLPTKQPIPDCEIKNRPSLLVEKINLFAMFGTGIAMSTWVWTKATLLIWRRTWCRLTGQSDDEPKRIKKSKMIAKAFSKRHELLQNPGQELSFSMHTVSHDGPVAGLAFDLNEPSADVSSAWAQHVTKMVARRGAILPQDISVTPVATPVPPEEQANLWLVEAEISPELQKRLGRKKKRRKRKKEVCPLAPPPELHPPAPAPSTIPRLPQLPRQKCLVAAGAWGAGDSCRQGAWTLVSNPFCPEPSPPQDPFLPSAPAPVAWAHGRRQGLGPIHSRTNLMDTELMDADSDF
Sequence of 3',5'-cyclic-AMP phosphodiesterase 4D (Q08499 whole entry): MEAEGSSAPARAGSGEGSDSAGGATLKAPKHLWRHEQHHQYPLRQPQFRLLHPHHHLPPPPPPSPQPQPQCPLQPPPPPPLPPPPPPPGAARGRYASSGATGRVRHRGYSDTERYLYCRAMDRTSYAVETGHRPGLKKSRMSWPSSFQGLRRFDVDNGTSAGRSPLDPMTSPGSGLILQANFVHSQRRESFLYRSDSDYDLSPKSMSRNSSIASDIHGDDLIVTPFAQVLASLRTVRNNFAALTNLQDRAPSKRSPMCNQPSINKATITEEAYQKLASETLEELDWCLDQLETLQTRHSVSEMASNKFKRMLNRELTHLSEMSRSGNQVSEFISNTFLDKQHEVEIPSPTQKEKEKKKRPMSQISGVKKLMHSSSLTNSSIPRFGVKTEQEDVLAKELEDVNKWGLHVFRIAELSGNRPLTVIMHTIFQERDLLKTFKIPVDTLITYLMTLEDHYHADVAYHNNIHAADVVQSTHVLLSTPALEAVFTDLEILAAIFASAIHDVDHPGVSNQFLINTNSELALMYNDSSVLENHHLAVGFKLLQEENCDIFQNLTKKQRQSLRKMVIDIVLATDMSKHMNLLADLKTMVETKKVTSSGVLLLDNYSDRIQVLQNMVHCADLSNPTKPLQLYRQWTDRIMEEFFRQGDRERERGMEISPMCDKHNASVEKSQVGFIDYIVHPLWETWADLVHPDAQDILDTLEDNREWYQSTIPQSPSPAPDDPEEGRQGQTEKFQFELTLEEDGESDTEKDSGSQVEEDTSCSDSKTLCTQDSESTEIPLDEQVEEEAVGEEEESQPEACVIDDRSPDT

As to `Cc1c(C(=O)Nc2ccc(N3C[C@@H](C)O[C@@H](C)C3)nc2)cccc1-c1ccc(OC(F)(F)F)cc1` [SONIDEGIB], in series [1] (read-out: EC50), the EC50 is 0.0012 µM. In addition, the CC50 at 48 h in series [2] was above 50 µM. For the same molecule, the values for the inhibition in series [3] and in series [4] were 5.8% and -0.2%, respectively.
On to `O=C(CSc1nc2sccc2c(=O)n1C1CC1)c1cccs1`, for which the results for the inhibition in [5] and in series [8] were 5.5% and -3.3%, respectively. In addition, the EC50 in series [1] (read-out: EC50) is 0.933 µM. Further, the inhibition result in [6] and in [7] was “inactive” throughout. Also, the CC50 at 48 h in [2] was above 50 µM.
`O=C(CSc1nc2sc3c(c2c(=O)n1CC1CCC1)CCCC3)c1cccs1`: in series [1] (read-out: EC50), the EC50 is 1.99 µM. Further, the CC50 at 48 h in [2] was 45.6 µM.
Regarding `O=C(CSc1nc2sc3c(c2c(=O)n1C1CC1)CCCC3)c1cccs1`, the inhibition – broadly, the change of the read-out against control, counted positive when it falls – in [5] is 26.8%; in series [8] it was 26.5%. In addition, the EC50 in series [1] (read-out: EC50) was determined as 1.89 µM. Also, the CC50 at 48 h in series [2] is above 50 µM.
Regarding `C=C(C)Cn1c(SCC(=O)c2ccccc2)nc2sc3c(c2c1=O)CCCC3`, the inhibition in series [5] is 64.8%; in [8], 60.4%. Also, in [1] (read-out: EC50), the EC50 stood at 5.7 µM. Also, the CC50 at 48 h in series [2] was above 50 µM. Also, the IC50 – broadly, the point on the concentration scale where inhibition reaches its midpoint – in [9] is 0.965 µM.
On to `O=C(CSc1nc2ccccc2c(=O)n1C1CC1)c1ccccc1`, for which, in [1] (read-out: EC50), the EC50 came out at 1.16 µM. The CC50 at 48 h in [2] is above 50 µM.
Taken in the same sequence, the figures for `C=C(C)Cn1c(SCC(=O)c2cccs2)nc2sc3ccccc3c2c1=O` were above 20 µM and above 50 µM.
As for `O=c1c2ccsc2nc(SCC(O)c2ccccc2)n1C1CC1` (configuration not stated), the inhibition is 3.2% in series [5] and -4.8% in [8]. In addition, the inhibition entry in series [6] and in [7] was “inactive” throughout. In series [2], the CC50 at 48 h was above 50 µM. Moreover, in [9], the midpoint of inhibition, the IC50, lay at 6.07 µM.
In the case of `O=C(CSc1nc2sc3c(c2c(=O)n1-c1ccccc1)CCCC3)c1cccs1`, the EC50 in series [1] (read-out: EC50) worked out at 8.25 µM. Besides, in [2], the CC50 at 48 h was above 50 µM.
Taken in the same sequence, the figures for `C=C(C)Cn1c(SCC(=O)c2cccs2)nc2sccc2c1=O` were 0.931 µM and above 50 µM.
For `C=C(C)Cn1c(SCC(=O)c2cccs2)nc2sc3c(c2c1=O)CCSC3`, in that order: 4.57 µM and above 50 µM.
For `C=C(C)Cn1c(SCC(=O)c2cccs2)nc2sc3c(c2c1=O)CCOC3`, in that order: above 20 µM and above 50 µM.
Regarding `C=C(C)Cn1c(SCC(=O)c2cccs2)nc2sc3c(c2c1=O)CCNC3`, the EC50 in series [1] (read-out: EC50) came to 6.4 µM. Also, the CC50 at 48 h in [2] came to 20.1 µM.
Taken in the same sequence, the figures for `CS(=O)(=O)c1ccc(C(=O)Nc2ccc(Cl)c(-c3ccccn3)c2)c(Cl)c1` [VISMODEGIB] were 0.013 µM and above 50 µM.
Taken in the same sequence, the figures for `C=C(C)Cn1c(SCC(=O)c2ccccn2)nc2sc3c(c2c1=O)CCCC3` were above 20 µM and above 50 µM.
For `O=C(CSc1nc2sc3c(c2c(=O)n1CC1CC1)CCCC3)c1cccs1`, in series [1] (read-out: EC50), the EC50 worked out at 2.07 µM. Further, the CC50 at 48 h in series [2] was above 50 µM.
For `C=C(C)Cn1c(SCC(=O)c2cccnc2)nc2sc3c(c2c1=O)CCCC3`, in that order: 11.1 µM and 35.4 µM.
Consider `C=C(C)Cn1c(SCC(=O)c2cccs2)nc2sc3c(c2c1=O)CCCC3`, for which the results for the inhibition in series [5] and in series [8] were 46.5% and 32.2%, respectively. For the same molecule, the EC50 in series [1] (read-out: EC50) is 1.34 µM; in [1] (read-out: pEC50 (converted)) it was below 1 µM. Besides, the inhibition entry in [6] and in series [7] was “inactive” in each case. In [2], the CC50 at 48 h was above 50 µM. This molecule registered an IC50 in [9] of 0.38 µM.
`O=C(CSc1nc2ccccc2c(=O)n1C1CC1)c1cccs1`: the inhibition in [5] was 10.3%; in series [8], 9.9%. In addition, the EC50 in series [1] (read-out: EC50) amounted to 0.685 µM. Further, the inhibition entry in series [6] and in series [7] was “inactive” each time. Further, the CC50 at 48 h in [2] is above 50 µM.
In the case of `C=C(C)Cn1c(SCC(=O)c2cccs2)nc2ccccc2c1=O`, the EC50 in [1] (read-out: EC50) is above 20 µM. The CC50 at 48 h in series [2] is above 50 µM.
In the case of `C=C(C)Cn1c(SCC(=O)N2CCCCC2C)nc2sc3c(c2c1=O)CCCC3` (configuration not stated), the inhibition in series [5] came to 35%; in series [8], 49.2%. In addition, the EC50 in series [1] (read-out: EC50) was 2.32 µM. Besides, in series [2], the CC50 at 48 h came out at 16.7 µM.
With `O=C(COc1nc2sccc2c(=O)n1C1CC1)c1ccccc1`, the EC50 in series [1] (read-out: EC50) is above 20 µM. Moreover, in [2], the CC50 at 48 h is above 50 µM.
Consider `CCCn1c(SCC(=O)c2cccs2)nc2sc3c(c2c1=O)CCCC3`, for which the figures for the inhibition in series [5] and in series [8] were 44.9% and 39.9%, respectively. The EC50 in [1] (read-out: EC50) is 1.3 µM. For the same molecule, the CC50 at 48 h in series [2] is above 50 µM. The molecule further yielded an IC50 in series [9] of 0.486 µM.
On to `C=C(C)Cn1c(SCC(=O)N2CCOCC2)nc2sc3c(c2c1=O)CCCC3`, for which the EC50 in [1] (read-out: EC50) was above 20 µM. For the same molecule, the CC50 at 48 h in series [2] was above 50 µM.
Taken in the same sequence, the figures for `C=C(C)Cn1c(SCC(=O)c2nccs2)nc2sc3c(c2c1=O)CCCC3` were above 20 µM and above 50 µM.
`CN(C)c1ccccc1CN1CCCN(Cc2ccccc2N(C)C)C1c1ccncc1`: the inhibition in [5] is 43.8%; in [8], 52.8%. The results for the EC50 in [1] (read-out: EC50) and in series [10] were 9.27 µM and 5 µM, respectively. Besides, the CC50 at 48 h in series [2] is above 50 µM.
As for `C=C(C)Cn1c(SCC(=O)N2CCCCC2)nc2sc3c(c2c1=O)CCCC3`, the EC50 in series [1] (read-out: EC50) was 10.7 µM. The CC50 at 48 h in series [2] was found to be 24.6 µM.
Regarding `CC1=C2C[C@H]3[C@@H](CC=C4CC(=O)CC[C@@]43C)[C@@H]2CCC12OC1C[C@H](C)CN(CCNC(=O)CCCCCNC(=O)CCc3ccccc3)C1[C@H]2C` (single isomer, unassigned), the inhibition entry in series [11] is “Active”.
On to `C=CCn1c(SCC(=O)c2cccs2)nc2sc3c(c2c1=O)CCCC3`, for which the EC50 in [1] (read-out: EC50) came out at 2.36 µM. In series [2], the CC50 at 48 h is above 50 µM.
Taken in the same sequence, the figures for `C=C(C)Cn1c(SCC(=O)c2ccncc2)nc2sc3c(c2c1=O)CCCC3` were 19.8 µM and above 50 µM.
For `O=C(CSc1nc2sccc2c(=O)n1C1CC1)c1ccccc1`, the inhibition in series [5] is 13.6%; in series [8] it was -0.3%. For the same molecule, the EC50 in series [1] (read-out: EC50) was 0.082 µM. For the same molecule, the inhibition result in [7] and in series [12] was “inactive” throughout. Moreover, the CC50 at 48 h in series [2] was above 50 µM.
Turning to `O=C(CNc1nc2sccc2c(=O)n1C1CC1)c1ccccc1`, the EC50 in series [1] (read-out: EC50) is above 20 µM. Further, the CC50 at 48 h in [2] is above 50 µM.
Taken in the same sequence, the figures for `CC(O)(CSc1nc2sccc2c(=O)n1C1CC1)c1ccccc1` (configuration not stated) were 0.948 µM and above 50 µM.
